The source of these data is patent publication US20070004791A1, “3,6-disubstituted azabicyclo {3.1.0} hexane derivatives useful as muscarnic receptor antagonists” (priority 2002, published 2007).

As usually defined, the Ki is the equilibrium dissociation constant of an inhibitor or competing ligand from its target. Read a high Ki as a looser hold on the target.

Assay [1] concerns the target T1, M3 muscarinic receptor (Rattus norvegicus, UniProt P08483).
The next assay concerns the target T2, M2 muscarinic receptor (Rattus norvegicus, UniProt P10980).
T2 construct: Submandibular glands and heart were isolated and placed in ice cold homogenising buffer; from tissue; host or cells: rat heart membrane homogenate
T2 sequence (P10980 1-466): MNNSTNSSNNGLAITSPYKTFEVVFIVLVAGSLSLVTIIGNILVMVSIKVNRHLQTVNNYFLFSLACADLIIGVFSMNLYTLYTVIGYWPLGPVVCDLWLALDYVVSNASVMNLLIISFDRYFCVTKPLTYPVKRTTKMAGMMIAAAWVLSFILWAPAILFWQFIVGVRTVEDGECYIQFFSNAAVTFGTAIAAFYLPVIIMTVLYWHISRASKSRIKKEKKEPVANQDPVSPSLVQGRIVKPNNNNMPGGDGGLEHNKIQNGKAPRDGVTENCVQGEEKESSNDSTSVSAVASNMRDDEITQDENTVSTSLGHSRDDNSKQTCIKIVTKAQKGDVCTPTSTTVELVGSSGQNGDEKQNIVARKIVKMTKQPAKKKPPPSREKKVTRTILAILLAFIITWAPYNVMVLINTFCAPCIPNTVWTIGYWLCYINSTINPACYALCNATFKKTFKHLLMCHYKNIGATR
The assay is described as follows: biochemical. It is filed as binding. To be noted: for Ki: Receptor Binding Assay M2 pKi.

For assay [2], the target named is T1, M3 muscarinic receptor. The assay can be described thus: biochemical. To be noted: Receptor Binding Assay M3 pKi.

Counter-ions that a name gives are not always drawn.

T1 sequence (P08483 whole entry): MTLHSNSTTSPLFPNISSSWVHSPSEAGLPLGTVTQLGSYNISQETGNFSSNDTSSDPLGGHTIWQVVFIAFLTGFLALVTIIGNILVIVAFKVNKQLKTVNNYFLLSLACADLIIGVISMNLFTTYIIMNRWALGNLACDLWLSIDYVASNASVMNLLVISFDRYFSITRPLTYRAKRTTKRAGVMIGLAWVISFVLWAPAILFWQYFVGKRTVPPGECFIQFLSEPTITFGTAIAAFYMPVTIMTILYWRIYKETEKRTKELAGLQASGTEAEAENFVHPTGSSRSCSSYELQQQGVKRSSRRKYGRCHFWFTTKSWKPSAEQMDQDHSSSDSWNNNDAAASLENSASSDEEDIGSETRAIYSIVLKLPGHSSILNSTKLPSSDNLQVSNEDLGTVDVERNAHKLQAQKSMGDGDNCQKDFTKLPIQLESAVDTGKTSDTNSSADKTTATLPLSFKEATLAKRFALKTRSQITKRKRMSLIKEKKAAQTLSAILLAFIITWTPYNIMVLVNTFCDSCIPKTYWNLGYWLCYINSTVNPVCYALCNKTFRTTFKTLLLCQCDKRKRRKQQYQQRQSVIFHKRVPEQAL

On to “(1α,5α,6α)-N-[3-(2-pyridylmethyl)-3-azabicyclo[3.1.0]hexyl-6-(aminomethyl)-yl]-2-hydroxy-2-cyclopentyl-2-phenylacetamide [Compound No. 47]”, for which the “Receptor Binding Assay M3 pKi” value on M3 muscarinic receptor [1] turned out to be 7.42. For the same molecule, at M2 muscarinic receptor, the “Receptor Binding Assay M2 pKi” value is 6.15.

As to `O=C(NC[C@@H]1[C@H]2CN(Cc3ccccc3)C[C@@H]12)[C@@](O)(c1ccccc1)C1CCCC1` [Compound No. 32, (2S)-(−)(1α,5α,6α)-N-[3-benzyl-3-azabicyclo[3.1.0]hexyl-6-(aminomethyl)-yl]-2-hydroxy-2-cyclopentyl-2-phenyl acetamide], the “Receptor Binding Assay Selectivity M2/M3” value on M3 muscarinic receptor [1] came out at 28. Besides, the Ki is 22.4 nM on M3 muscarinic receptor [2] and 631 nM on M2 muscarinic receptor.

With `O=C(NC[C@@H]1[C@H]2CN(Cc3ccccc3)C[C@@H]12)C(O)(c1ccccc1)C1CC1` (stereo partly drawn) [Compound No. 38, (1α,5α,6α)-N-[3-benzyl-3-azabicyclo[3.1.0]hexyl-6-(aminomethyl)-yl]-2-hydroxy-2-cyclopropyl-2-phenylacetamide], the “Receptor Binding Assay Selectivity M2/M3” value at M3 muscarinic receptor [1] is listed as 6.6. Further, the Ki is 64.6 nM at M3 muscarinic receptor [2] and 427 nM at M2 muscarinic receptor.

For `O=C(NC[C@@H]1[C@H]2CN(Cc3ccncc3)C[C@@H]12)C(O)(c1ccccc1)c1ccccc1` [Compound No. 50, (1α,5α,6α)-N-[3-(4-pyridylmethyl)-3-azabicyclo[3.1.0]hexyl-6-(aminomethyl)-yl]-2-hydroxy-2,2-diphenyl acetamide], the Ki on M3 muscarinic receptor [2] was 115 nM; on M2 muscarinic receptor, over 1000 nM.

For the molecule `CC(C)=CCN1C[C@@H]2[C@@H](CNC(=O)C(O)(c3ccccc3)C3CCCCC3)[C@@H]2C1` (stereo partly drawn) [Compound No. 39, (1α,5α,6α)-N-[3-(3-methyl-2-butenyl)-3-azabicyclo[3.1.0]hexyl-6-(aminomethyl)yl]-2-hydroxy-2-cyclohexyl-2-phenylacetamide], the “Receptor Binding Assay Selectivity M2/M3” value at M3 muscarinic receptor [1] is reported as 3.7. Besides, the Ki at M3 muscarinic receptor [2] was 4.37 nM; at M2 muscarinic receptor, 16.2 nM.

Turning to `CC(c1ccccc1)N1CC2C(CNC(=O)C(O)(c3ccccc3)C3CCCC3)C2C1` (stereo not drawn) [Compound No. 22, (1α,5α,6α)-N-[3-(1-phenylethyl)-3-azabicyclo[3.1.0]hexyl-6-(aminomethyl)-yl]-2-hydroxy-2-cyclopentyl-2-phenyl acetamide], on M3 muscarinic receptor [1], the “Receptor Binding Assay Selectivity M2/M3” value amounted to 14.8. Also, the Ki on M3 muscarinic receptor [2] was 5.89 nM; on M2 muscarinic receptor, 87.1 nM.

On to `O=C(NC[C@@H]1[C@H]2CN(Cc3cccnc3)C[C@@H]12)C(O)(c1ccccc1)c1ccccc1` [Compound No. 49, (1α,5α,6α)-N-[3-(3-pyridylmethyl)-3-azabicyclo[3.1.0]hexyl-6-(aminomethyl)-yl]-2-hydroxy-2,2-diphenylacetamide], for which the Ki was 69.2 nM at M3 muscarinic receptor [2] and over 1000 nM at M2 muscarinic receptor.

`CC(NC(=O)C(O)(c1ccccc1)C1CCCC1)[C@H]1[C@@H]2CN(Cc3ccccc3)C[C@@H]21` (stereo partly drawn) [Compound No. 25, (1α,5α,6α)-N-[3-benzyl-3-azabicyclo[3.1.0]hexyl-6-(1-aminoethyl)-yl]-2-hydroxy-2-cyclopentyl-2-phenyl acetamide]: the “Receptor Binding Assay Selectivity M2/M3” value at M3 muscarinic receptor [1] turned out to be 17. The Ki is 25.1 nM at M3 muscarinic receptor [2] and 427 nM at M2 muscarinic receptor.

On to `O=C(NC[C@@H]1[C@H]2CN(Cc3ccccc3)C[C@@H]12)C(O)(c1ccccc1)C1CCC1` (stereo partly drawn) [Compound No. 37, (1α,5α,6α)-N-[3-benzyl-3-azabicyclo[3.1.0]hexyl-6-(aminomethyl)-yl]-2hydroxy-2-cyclobutyl-2-phenylacetamide], for which the “Receptor Binding Assay Selectivity M2/M3” value on M3 muscarinic receptor [1] is 8. Further, the Ki is 5.89 nM on M3 muscarinic receptor [2] and 57.5 nM on M2 muscarinic receptor.

As to `O=C(NCC1C2CN(Cc3ccncc3)CC12)C(O)(c1ccccc1)C1CCCCC1` (stereo not drawn) [Compound No. 46, (1α,5α,6α)-N-[3-(4pyridylmethyl)-3-azabicyclo[3.1.0]hexyl-6-(aminomethyl)-yl]-2-hydroxy-2-cyclohexyl-2-phenylacetamide], the Ki was 67.6 nM at M3 muscarinic receptor [2] and over 1000 nM at M2 muscarinic receptor.

For the molecule `O=C(NC[C@@H]1[C@H]2CN(Cc3ccncc3)C[C@@H]12)C(O)(c1ccccc1)C1CCCC1` (stereo partly drawn) [Compound No. 48, (1α,5α,6α)-N-[3-(4-pyridylmethyl)-3-azabicyclo[3.1.0]hexyl-6-(aminomethyl)-yl]-2-hydroxy-2-cyclopentyl-2-phenylacetamide], the Ki at M3 muscarinic receptor [2] was 72.4 nM; at M2 muscarinic receptor, over 1000 nM.

Turning to `CC(c1ccccc1)N1CC2C(CNC(=O)C(O)(c3ccccc3)C3CCCCC3)C2C1` (stereo not drawn) [Compound No. 21, (1α,5α,6α)-N-[3-(1-phenylethyl)-3-azabicyclo[3.1.0]hexyl-6-(aminomethyl)-yl]-2-hydroxy-2-cyclohexyl-2-phenyl acetamide], the “Receptor Binding Assay Selectivity M2/M3” value on M3 muscarinic receptor [1] stood at 17. The results for the Ki on M3 muscarinic receptor [2] and on M2 muscarinic receptor were 15.1 nM and 257 nM, respectively.

Consider `O=C(NC[C@@H]1[C@H]2CN(Cc3ccccc3)C[C@@H]12)C(O)(c1ccccc1)C1CCCC1` (stereo partly drawn) [Compound No. 62, (1α,5α,6α)-N-[3-benzyl-3-azabicyclo[3.1.0]-hexyl-6-(aminomethyl)-yl]-2-hydroxy-2-cyclopentyl-2-phenyl acetamide. Maleate salt], for which the results for the inhibitory constant (Ki) at M3 muscarinic receptor [2] and at M2 muscarinic receptor were 6.76 nM and 52.5 nM, respectively.

On to `O=C(NC[C@@H]1[C@H]2CN(Cc3cccnc3)C[C@@H]12)C(O)(c1ccccc1)C1CCCCC1` (stereo partly drawn) [Compound No. 45, (1α,5α,6α)-N-[3-(3-pyridylmethyl)-3-azabicyclo[3.1.0]hexyl-6-(aminomethyl)-yl]-2-hydroxy-2-cyclohexyl-2-phenyl acetamide], for which the Ki is 234 nM at M3 muscarinic receptor [2] and over 1000 nM on M2 muscarinic receptor.

Take `O=C(NCC1C2CN(Cc3ccccc3)CC12)C(O)(c1ccccc1)C1CCCC1` (stereo not drawn) [Compound No. 61, (1α,5α,6α)-N-[3-benzyl-3-azabicyclo[3.1.0]-hexyl-6-(aminomethyl)-yl]-2-hydroxy-2-cyclopentyl-2-phenyl acetamide. L(−) malic acid salt]: the Ki at M3 muscarinic receptor [2] is 5.13 nM; on M2 muscarinic receptor it was 43.7 nM.

Take “(1α,5α,6α)-N-[3-(2-(3,4-methylenedioxyphenyl)ethyl)-3-azabicyclo[3.1.0]hexyl-6-(aminomethyl)-yl]-2-hydroxy-2-cyclopentyl-2-phenyl acetamide [Compound No. 13]”: on M3 muscarinic receptor [1], the “Receptor Binding Assay M3 pKi” value came out at 7.28 and the “Receptor Binding Assay Selectivity M2/M3” value amounted to 6.3. Further, the “Receptor Binding Assay M2 pKi” value on M2 muscarinic receptor worked out at 6.48.

On to `O=C(NCC1C2CN(Cc3ccccc3)CC12)C(O)(c1ccccc1)C1CCCC1` (stereo not drawn) [Compound No. 60, (1α,5α,6α)-N-[3-benzyl-3-azabicyclo[3.1.0]-hexyl-6-(aminomethyl)-yl]-2-hydroxy-2-cyclopentyl-2-phenyl acetamide hydrochloride salt], for which the Ki is 5.25 nM at M3 muscarinic receptor [2] and 49 nM at M2 muscarinic receptor.

For “(1α,5α,6α)-N-[3-(2-(3,4-methylenedioxyphenyl)ethyl)-3-azabicyclo[3.1.0]hexyl-6-(aminomethyl)-yl]-2-hydroxy-2-cyclohexyl-2-phenyl acetamide [Compound No. 14]”, at M3 muscarinic receptor [1], the “Receptor Binding Assay M3 pKi” value is 6.72 and the “Receptor Binding Assay Selectivity M2/M3” value was 10.5. The “Receptor Binding Assay M2 pKi” value on M2 muscarinic receptor is on record as 5.7.
